Results taken from article PMC6100250, “Efficient Intracellular Delivery of Cell-Impermeable Cargo Molecules by Peptides Containing Tryptophan and Histidine” (Molecules : A Journal of Synthetic Chemistry and Natural …, 2018).
Non-standard residues stand in square brackets, D forms with d. Residues, ends and D or L forms follow the SMILES beside them. *: point of attachment. 5FAM = O=C1OC2(c3ccc(O)cc3Oc3cc(O)ccc32)c2ccc(C(=O)*)cc21; pY = N[C@@H](Cc1ccc(OP(=O)(O)O)cc1)C(=O)O

Assays:
SK-OV-3 cells [1] = assay: Live cell fluorescence microscopy of F’-GpYEEI uptake; format: cell-based, human; settings: F’-GpYEEI 5 µM alone, no carrier peptide, 3 h, FITC channel
Experimental: Fluorescence microscopy was used to confirm the intracellular uptake of F’-GpYEEI in the presence of cyclic [WH]5. The fluorescence intensity of F’-GpYEEI (5 µM) was visualized in a physical mixture with cyclic [WH]5 (50 µM) compared to that of F’-GpYEEI alone in SK-OV-3 cells. […] F’-GpYEEI alone was used as a control in this assay. Live cell imaging was carried using glass-bottom plates.
SK-OV-3 cells were grown with antibiotic-free DMEM 24 h prior to the experiment in a glass bottom petri-dish (60 mm × 15 mm) of 5000 cells per mL of media. The F’-GpYEEI was incubated with cyclic [WH]5 for 30 min at room temperature. Then, the cells were treated with a mixture of F’-GpYEEI (5 μM) and cyclic [WH]5 (50 μM) in Opti-MEM for 3 h at 37 °C. After 3 h, the medium containing the treatments was removed, and PBS was added to cells. The cells were washed with PBS for two times. Images were acquired with BZ-X710 fluorescence microscope (Keyence, Osaka, Japan) at 100× magnification for brightfield and FITC channels. Images were merged and processed using Image J software to visualize the fluorescence uptake by cells.

CCRF-CEM cells = assay: MTS cell viability (cytotoxicity) assay; settings: peptide 10, 50 and 100 µM (up to 100 µM), 3 h incubation, 37 °C, read at 490 nm, triplicate
Experimental: (§1) To determine concentration of peptide to be used in in vitro assays, the cytotoxicity of peptides was evaluated in two cell lines, human ovarian (SK-OV-3) and leukemia (CCRF-CEM) cancer cells.
(§2) Human leukemia CCRF-CEM (ATCC # CCL-119) and ovarian carcinoma SK-OV-3 (ATCC # HTB-77) cell lines were purchased from the American Type Culture Collection. Cells were grown on 75 cm^2 cell culture flasks. The Roswell Park Memorial Institute (RPMI)-1640 medium was used for leukemia cells and McCoy’s 5A medium was used for SK-OV-3 cells. The medium was supplemented with 10% fetal bovine serum (FBS), 1% penicillin−streptomycin solution (10,000 units of penicillin, and 10 mg of streptomycin in 0.9% NaCl) in a humidified atmosphere of 5% CO2 at 37 °C. All bioassays were performed in triplicate.
(§3) The cytotoxicity assay was performed via an MTS proliferation assay in CCRF-CEM and SK-OV-3 cells. CCRF-CEM (40,000 cells) and SK-OV-3 (5000 cells) were incubated with 100 µL of complete media. The cells were seeded overnight in 96 well plates. […] The fluorescence intensity of the formazan product was measured at 490 nm using a Spectra Max M2 microplate spectrophotometer. The percentage of cell survival was calculated as [(OD value of cells treated with the test mixture of compounds) − (OD value of culture medium)]/[(OD value of control cells) − (OD value of culture medium)] × 100%.

SK-OV-3 cells [2] = assay: MTS cell viability (cytotoxicity) assay; settings: peptide 10, 50 and 100 µM (up to 100 µM), 3 h incubation, 37 °C, read at 490 nm, triplicate
Experimental: as §1, §2, §3

Row | SMILES | cellular uptake of F’-GpYEEI alone (fluorescence microscopy) (SK-OV-3 cells [1]) | cytotoxicity (cell survival, MTS) (CCRF-CEM cells) | cytotoxicity (cell survival, MTS) (SK-OV-3 cells [2])
1 | CC[C@H](C)[C@H](NC(=O)[C@H](CCC(=O)O)NC(=O)[C@H](CCC(=O)O)NC(=O)[C@H](Cc1ccc(OP(=O)(O)O)cc1)NC(=O)CNC(=O)c1ccc2c(c1)C(=O)OC21c2ccc(O)cc2Oc2cc(O)ccc21)C(=O)O [F’-GpYEEI] (5FAM-G[pY]EEI-OH) | No green fluorescence was observed |  | 
2 | O=C1N[C@@H](Cc2c[nH]c3ccccc23)C(=O)N[C@@H](Cc2c[nH]cn2)C(=O)N[C@@H](Cc2c[nH]c3ccccc23)C(=O)N[C@@H](Cc2c[nH]cn2)C(=O)N[C@@H](Cc2c[nH]c3ccccc23)C(=O)N[C@@H](Cc2c[nH]cn2)C(=O)N[C@@H](Cc2c[nH]c3ccccc23)C(=O)N[C@@H](Cc2c[nH]cn2)C(=O)N[C@@H](Cc2c[nH]c3ccccc23)C(=O)N[C@H]1Cc1c[nH]cn1 [cyclic [WH]5] (cyclo(HWHWHWHWHW)) |  | did not show significant toxicity | did not show significant toxicity
